One may read the pEC50 as the negative decadic logarithm of the EC50, by convention in mol/L. Read a low pEC50 as a high EC50.

Consider 25 compounds from ChEMBL document CHEMBL4725306, “Discovery of (3S,4S)-3-methyl-3-(4-fluorophenyl)-4-(4-(1,1,1,3,3,3-hexafluoro-2-hydroxyprop-2-yl)phenyl)pyrrolidines as novel RORγt inverse agonists” (Bioorg Med Chem Lett, 2020).

Data set [1] deals with T1, Nuclear receptor subfamily 1 group I member 2 (Homo sapiens, UniProt O75469).
T1 sequence (O75469 whole entry): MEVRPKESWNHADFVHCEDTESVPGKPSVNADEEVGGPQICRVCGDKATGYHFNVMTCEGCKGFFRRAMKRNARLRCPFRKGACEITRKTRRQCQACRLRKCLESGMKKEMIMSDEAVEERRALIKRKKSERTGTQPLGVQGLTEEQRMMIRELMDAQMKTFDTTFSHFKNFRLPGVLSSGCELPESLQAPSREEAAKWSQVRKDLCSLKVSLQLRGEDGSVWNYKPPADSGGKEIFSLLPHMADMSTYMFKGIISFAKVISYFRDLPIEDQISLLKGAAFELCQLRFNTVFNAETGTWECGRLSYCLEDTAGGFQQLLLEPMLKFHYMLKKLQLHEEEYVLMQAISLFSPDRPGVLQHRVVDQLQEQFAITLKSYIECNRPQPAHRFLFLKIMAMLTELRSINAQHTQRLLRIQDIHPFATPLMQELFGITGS
As to the kind of experiment: Activation of PXR (unknown origin).

A further data set concerns the target T2, PXR (Homo sapiens, UniProt O75469).
T2 sequence (O75469 whole entry): T1 sequence (O75469 whole entry)
As to the kind of experiment: (§1) Activation of PXR (unknown origin) relative to rifampicin. Particulars: read-out: %max.

A short description of data set [2]: Metabolic stability in human liver microsomes assessed as parent compound remaining incubated for 10 mins. It counts as ADME, Microsome. Particulars: read-out: Stabilty.
The nature of data set [3]: Metabolic stability in mouse liver microsomes assessed as parent compound remaining incubated for 10 mins. The class given is ADME, Microsome. The settings on record: read-out: Stabilty.
The target of data set [4] is T1, Nuclear receptor subfamily 1 group I member 2. The description is as §1.
Data set [5] has as its target T3, Nuclear receptor ROR-gamma (Homo sapiens, UniProt P51449).
T3 sequence (P51449 whole entry): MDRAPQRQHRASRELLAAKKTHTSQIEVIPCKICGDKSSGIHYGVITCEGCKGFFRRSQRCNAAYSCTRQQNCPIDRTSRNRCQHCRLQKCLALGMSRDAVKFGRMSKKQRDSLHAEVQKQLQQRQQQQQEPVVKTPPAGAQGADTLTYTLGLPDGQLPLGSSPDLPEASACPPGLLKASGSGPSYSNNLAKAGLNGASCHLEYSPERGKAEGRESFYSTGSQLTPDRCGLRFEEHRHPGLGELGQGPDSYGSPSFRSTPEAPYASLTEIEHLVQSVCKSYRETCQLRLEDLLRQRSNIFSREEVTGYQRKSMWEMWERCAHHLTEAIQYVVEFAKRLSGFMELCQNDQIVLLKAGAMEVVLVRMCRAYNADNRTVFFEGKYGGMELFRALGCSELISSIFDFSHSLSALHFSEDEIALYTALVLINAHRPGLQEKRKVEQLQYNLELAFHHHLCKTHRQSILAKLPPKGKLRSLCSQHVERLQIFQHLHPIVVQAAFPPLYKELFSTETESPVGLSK
As to the kind of experiment: Inverse agonist activity at RORgammat (unknown origin) expressed in Jurkat cells by reporter assay. The class given is cell-based. In general terms: Reporter assays use an easily measured gene product as a stand-in for the process of interest.

For data set [6], the target named is T4, Nuclear receptor ROR-alpha (Homo sapiens, UniProt P35398).
T4 sequence (P35398 whole entry): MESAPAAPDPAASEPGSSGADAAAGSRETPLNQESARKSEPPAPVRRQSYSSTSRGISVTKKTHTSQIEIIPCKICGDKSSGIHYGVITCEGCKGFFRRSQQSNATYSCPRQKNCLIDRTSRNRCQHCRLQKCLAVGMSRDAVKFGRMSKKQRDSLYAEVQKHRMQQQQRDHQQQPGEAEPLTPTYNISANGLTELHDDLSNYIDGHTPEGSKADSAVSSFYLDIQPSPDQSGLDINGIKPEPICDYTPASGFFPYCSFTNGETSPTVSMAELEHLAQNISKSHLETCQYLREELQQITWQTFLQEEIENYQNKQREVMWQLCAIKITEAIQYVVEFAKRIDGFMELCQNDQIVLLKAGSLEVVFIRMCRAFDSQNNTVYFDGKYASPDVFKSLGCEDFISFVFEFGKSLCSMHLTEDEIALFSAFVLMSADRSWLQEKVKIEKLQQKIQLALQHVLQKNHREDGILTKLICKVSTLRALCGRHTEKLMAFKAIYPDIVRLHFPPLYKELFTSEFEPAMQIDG
As to the kind of experiment: Inverse agonist activity at ROR-alpha (unknown origin) expressed in Jurkat cells by gal4 reporter assay. It counts as cell-based.

For data set [7], the target named is T5, Nuclear receptor ROR-beta (Homo sapiens, UniProt Q92753).
T5 sequence (Q92753 whole entry): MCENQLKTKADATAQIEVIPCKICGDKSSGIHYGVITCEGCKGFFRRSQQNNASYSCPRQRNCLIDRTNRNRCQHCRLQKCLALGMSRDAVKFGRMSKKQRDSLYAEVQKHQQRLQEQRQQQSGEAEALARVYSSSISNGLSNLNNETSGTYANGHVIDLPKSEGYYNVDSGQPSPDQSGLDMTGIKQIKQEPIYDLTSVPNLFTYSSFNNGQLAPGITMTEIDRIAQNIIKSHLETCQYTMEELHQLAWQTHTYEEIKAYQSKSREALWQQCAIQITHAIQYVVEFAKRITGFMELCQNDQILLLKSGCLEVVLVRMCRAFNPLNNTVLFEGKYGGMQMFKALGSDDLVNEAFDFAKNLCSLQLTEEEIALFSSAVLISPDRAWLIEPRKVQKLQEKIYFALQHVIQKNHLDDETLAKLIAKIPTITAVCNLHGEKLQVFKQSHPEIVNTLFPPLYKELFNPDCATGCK
As to the kind of experiment: Inverse agonist activity at ROR-beta (unknown origin) expressed in Jurkat cells by gal4 reporter assay. It counts as cell-based.

Structures are written as SMILES. pEC50: −log10 of the molar value.

As to `C[C@@]1(c2ccc(F)cc2)CN(C(=O)NCc2ccccc2)C[C@@H]1c1ccc(C(O)(C(F)(F)F)C(F)(F)F)cc1`, the pEC50 in data set [1] was 6.33. Further, the Emax on PXR was determined as 80%. Also, the remaining at 10 min in data set [2] was 58%; in data set [3], 17%.
`CC(=O)N1CCC(C(=O)N2C[C@@H](c3ccc(C(O)(C(F)(F)F)C(F)(F)F)cc3)[C@@](C)(c3ccc(F)cc3)C2)CC1` gave a pEC50 in data set [1] of 5.97. In addition, the Emax at PXR was found to be 61%. For the same compound, the results for the remaining at 10 min in data set [2] and in data set [3] were 86% and 81%, respectively.
For `CC(=O)N1CCC(C(=O)N2C[C@@H](c3ccc(C(F)(C(F)(F)F)C(F)(F)F)cc3)[C@@](C)(c3ccc(F)cc3)C2)CC1`, the negative-log EC50 (pEC50) in data set [1] was < 4.30. On PXR, the Emax came out at 15%.
On to `C[C@]1(c2ccc(F)cc2)CN(C(=O)C2CCN(C(=O)CO)CC2)C[C@H]1c1ccc(C(O)(C(F)(F)F)C(F)(F)F)cc1`, for which the remaining at 10 min in data set [2] amounted to 86%; in data set [3], 82%.
For `C[C@]1(c2ccc(F)cc2)CN(C(=O)NCc2ccncc2)C[C@H]1c1ccc(C(O)(C(F)(F)F)C(F)(F)F)cc1` the same measures were 11% and 1%.
For `CC(=O)N1CCC(C(=O)N2C[C@@H](c3ccc(C(O)(C(F)(F)F)C(F)(F)F)cc3)[C@@](C)(c3ccccc3)C2)CC1` the same measures were 89% and 75%.
Turning to `C[C@]1(c2ccc(F)cc2)CN(C(=O)NCc2ccccc2)C[C@H]1c1ccc(C(O)(C(F)(F)F)C(F)(F)F)cc1`, the pEC50 in data set [1] is 6.25. Also, in data set [4], the “%max” value was 98%. In addition, the remaining at 10 min in data set [2] was 73%; in data set [3] it was 67%.
`C[C@]1(c2ccc(F)cc2)CN(C(=O)NCc2ccc(C#N)cc2)C[C@H]1c1ccc(C(O)(C(F)(F)F)C(F)(F)F)cc1` gave a negative-log EC50 (pEC50) in data set [5] of 7.13. Moreover, the remaining at 10 min in data set [2] is 76%; in data set [3], 51%.
Turning to `C[C@]1(c2ccc(F)cc2)CN(C(=O)C2CCN(C(=O)CC#N)CC2)C[C@H]1c1ccc(C(O)(C(F)(F)F)C(F)(F)F)cc1`, the pEC50 in data set [1] was 6.31; in data set [6], < 4.40; in data set [7] it was < 4.40. Further, on PXR, the Emax came to 46%. For the same compound, the remaining at 10 min in data set [2] was determined as 80%; in data set [3] it was 79%.
`C[C@]1(c2ccc(F)cc2)CN(C(=O)NCc2ccc3c(c2)OCO3)C[C@H]1c1ccc(C(O)(C(F)(F)F)C(F)(F)F)cc1`: the results for the remaining at 10 min in data set [2] and in data set [3] were 54% and 65%, respectively.
Regarding `C[C@]1(c2ccc(F)cc2)CN(C(=O)C2CCN(C(=O)C(N)=O)CC2)C[C@H]1c1ccc(C(O)(C(F)(F)F)C(F)(F)F)cc1`, the pEC50 in data set [1] is 6.00. On PXR, the Emax amounted to 73%. The values for the remaining at 10 min in data set [2] and in data set [3] were 91% and 87%, respectively.
For `C[C@]1(c2ccc(F)cc2)CN(C(=O)C2CCN(S(C)(=O)=O)CC2)C[C@H]1c1ccc(C(O)(C(F)(F)F)C(F)(F)F)cc1` the same measures were 6.82, 78%, 90% and 80%.
For `C[C@]1(c2ccc(F)cc2)CN(C(=O)C2CCN(C(N)=O)CC2)C[C@H]1c1ccc(C(O)(C(F)(F)F)C(F)(F)F)cc1` the same measures were 5.97, 72%, 97% and 100%.
For `COCC(=O)N1CCC(C(=O)N2C[C@@H](c3ccc(C(O)(C(F)(F)F)C(F)(F)F)cc3)[C@@](C)(c3ccc(F)cc3)C2)CC1` the same measures were 5.81, 52%, 54% and 49%.
In data set [1], `CCS(=O)(=O)c1ccc(CNC(=O)N2C[C@@H](c3ccc(C(O)(C(F)(F)F)C(F)(F)F)cc3)[C@@](C)(c3ccc(F)cc3)C2)cc1` gave a pEC50 of 8.30. The Emax on PXR worked out at 100%. Besides, the remaining at 10 min in data set [2] is 32%; in data set [3] it was 51%.
On to `COc1ccc(CNC(=O)N2C[C@@H](c3ccc(C(O)(C(F)(F)F)C(F)(F)F)cc3)[C@@](C)(c3ccc(F)cc3)C2)cc1`, for which, in data set [1], the pEC50 is 6.72. Moreover, the Emax on PXR was 84%. Moreover, the remaining at 10 min in data set [2] came to 68%; in data set [3], 67%.
With `CC(=O)N1CCC(C(=O)N2C[C@H](c3ccc(C(O)(C(F)(F)F)C(F)(F)F)cc3)[C@](C)(c3ccccc3)C2)CC1`, the remaining at 10 min in data set [2] is 74%; in data set [3] it was 79%.
In data set [1], `CC(=O)N1C[C@@H](c2ccc(C(O)(C(F)(F)F)C(F)(F)F)cc2)[C@@](C)(c2ccccc2)C1` (racemic) gave a pEC50 of 6.44. Also, the Emax on PXR worked out at 110%.
In data set [1], `C[C@]1(c2ccccc2)CN(C(=O)c2ccccc2)C[C@H]1c1ccc(C(O)(C(F)(F)F)C(F)(F)F)cc1` (racemic) had a pEC50 of 6.13. Further, the Emax on PXR was found to be 93%.
For `C[C@]1(c2ccccc2)CN(S(C)(=O)=O)C[C@H]1c1ccc(C(O)(C(F)(F)F)C(F)(F)F)cc1` (racemic), the pEC50 in data set [1] was 6.59. Further, the Emax on PXR is 110%.
For `C[C@]1(c2ccc(F)cc2)CN(C(=O)NCc2ccccc2)C[C@H]1c1ccc(C(O)(C(F)(F)F)C(F)(F)F)cc1` (racemic) the same measures were 6.32 and 79%.
For the compound `C[C@]1(c2ccccc2)CNC[C@H]1c1ccc(C(O)(C(F)(F)F)C(F)(F)F)cc1` (racemic), the figures for the negative-log EC50 (pEC50) in data set [5] and in data set [1] were 5.10 and 5.90, respectively. In addition, the Emax on PXR stood at 39%.
For `CCNC(=O)N1C[C@@H](c2ccc(C(O)(C(F)(F)F)C(F)(F)F)cc2)[C@@](C)(c2ccccc2)C1` (racemic), the pEC50 in data set [1] was 5.75. In addition, the Emax at PXR was 73%.
For `C[C@@]1(c2ccc(C(O)(C(F)(F)F)C(F)(F)F)cc2)CN(C(=O)NCc2ccccc2)C[C@@H]1c1ccccc1` (racemic) the same measures were 7.22 and 84%.
For `C[C@]1(c2ccccc2)CN(CC(N)=O)C[C@H]1c1ccc(C(O)(C(F)(F)F)C(F)(F)F)cc1` (racemic) the same measures were 6.56 and 96%.
